Source: patent US12029751B2, “Therapeutic agent for nervous system disease” (OSAKA UNIVERSITY, priority 2017, dated 2024)

Tested on: Akt-mTOR pathway
Assay: Western blot of Akt, 4EBP1 and S6K phosphorylation (mechanism of macrophage induction)
Assay type: cell-based, mouse
Conditions: IL-4 20 ng/ml + MeCbl 1 mM + RAD001 (200 nM), 30 minutes
Description: The J774A.1 cells (Example 5-1) were seeded on a dish having a diameter of 6 cm. After 4 days, proteins were collected using a cell lysis buffer containing a cocktail of protease inhibitors. The protein concentration was measured by BCA assay. Then, 50 μg of each sample was subjected to SDS-PAGE, and the electrophoresed proteins were transferred to a polyvinylidene difluoride membrane. The membrane was blocked with a blocking buffer for 1 hour, and then the proteins were allowed to react with primary antibodies at 4° C. overnight. The proteins were further allowed to react with a secondary antibody at room temperature for 1 hour and detected using ECL Western Blotting Detection System. To detect the M1 markers iNOS and IL-1β, lipopolysaccharide (LPS) (100 ng/ml) and methylcobalamin were added at 24 hours before collecting the proteins. To detect the M2 markers Arg1 and CD206, IL-4 (20 ng/ml) and methylcobalamin were added at 72 hours before collecting the proteins.
The mechanism of the macrophage induction (Example 5) by methylcobalamin was analyzed. Specifically, the analysis was carried out as follows. At 30 minutes after IL-4 and methylcobalamin (100 nM and 1 mM) were added, activation of Akt, 4EBP1, and S6K in the Akt-mTOR pathway (one of the major signaling pathways that induce M2 gene expression) was evaluated by Western blot. In the pathway, Akt phosphorylation occurs in response to an upstream signal, and 4EBP1 phosphorylation and S6K phosphorylation further occur through mTORC1 in the downstream. The S6K phosphorylation provides a negative feedback to the upstream of the signaling pathway. Western blot was performed as in Example 5-2, except that IL-4 (20 ng/ml), methylcobalamin, and RAD001 (200 nM) were added at 30 minutes before the proteins were collected, and the primary antibodies for detection were changed.

**Q.** How did the p-4EBP1/4EBP1 turn out when CO[C@H]1C[C@@H]2CC[C@@H](C)[C@@](O)(O2)C(=O)C(=O)N2CCCC[C@H]2C(=O)O[C@H]([C@H](C)C[C@@H]2CC[C@@H](OCCO)[C@H](OC)C2)CC(=O)[C@H](C)/C=C(\C)[C@@H](O)[C@@H](OC)C(=O)[C@H](C)C[C@H](C)/C=C/C=C/C=C/1C [RAD001] was run?
**A.** suppressed

**Q.** And the p-Akt/Akt?
**A.** rescued

**Q.** What about the p-S6K/S6K of the same compound?
**A.** suppressed
